Results taken from the NIST ThermoML archive (doi:10.1021/acs.jced.5b00950).
Numbers after ± are expanded uncertainties.

Experiments:
[1] = 298.2 K; 101.33 kPa; Liquid; Vibrating tube method
[2] = refractive index (Na D-line) (dimensionless); conditions: 298.2 K; 101.33 kPa; Liquid; Standard Abbe refractometry

| mass density [1] [kg/m3] | refractive index [2] | SMILES |
| --- | --- | --- |
| 1073 ± 2 | 1.5012 ± 0.002 | CC(=O)Oc1ccccc1 [phenyl ethanoate] |
| 999.9 ± 2 | 1.3324 ± 0.002 | O [water] |
| 952.8 ± 2 | 1.3964 ± 0.002 | CCCC(=O)O [butanoic acid] |
